This is an account of results in PMC9505538, “P-Glycoprotein (MDR1/ABCB1) Restricts Brain Accumulation of the Novel EGFR Inhibitor EAI045 and Oral Elacridar Coadministration Enhances Its Brain Accumulation and Oral Exposure” (Pharmaceuticals, 2022).

Details of data set [1]: method as in PMID 28288939, PMID 30253203, PMID 31175939, PMID 33459177, PMID 35400324. Conditions: reported; cited from earlier work.
Data set [2] deals with L858R/T790M EGFR mutant kinase. Set-up: method as in PMID 27251290. The note with it: cited from earlier work.
The conditions of data set [3]: mouse, in vivo. The method, then:
We subsequently analyzed the single and combined effects of Abcb1 and Abcg2 deficiencies on EAI045 plasma pharmacokinetics and tissue accumulation using male WT, Abcg2^-/-, Abcb1a/1b^-/-, and Abcb1a/1b;Abcg2^-/- mice. As we wanted to assess tissue concentrations while plasma concentrations were still relatively high; we terminated this experiment at 30 min.
(§1) Mice (Mus musculus) were bred in the Netherlands Cancer Institute and housed and handled according to institutional guidelines complying with Dutch and EU legislation. Animals used were WT, Abcb1a/1b^-/- [39], Abcg2^-/- [40], Abcb1a/1b;Abcg2^-/- [41], Cyp3a^-/- [42], and Oatp1a/1b^-/- [43] mice of a >99% FVB/N strain background. Homozygous CYP3A4 humanized transgenic mice (Cyp3aXAV) were generated by cross-breeding of transgenic mice with stable human CYP3A4 expression in the liver or intestine, respectively, in a Cyp3a^-/- background. Proper functionality of the knockout and transgenic strains was monitored by regular testing with a variety of drug substrates. All the mice used were between 10 and 15 weeks of age. Animals were kept in a temperature-controlled environment with a 12 h light/12 h dark cycle and received a standard diet (Transbreed, SDS Diets, Technilab-BMI, The Netherlands) and acidified water ad libitum. Depending on the type of experiment, 5 or 6 mice were tested in each experimental group. All experimental animal protocols, including power calculations, were ethically assessed and designed under the nationally approved DEC/CCD project AVD301002016595 (approval date, 10 August 2016) and evaluated and approved by the institutional animal care and use committee (IACUC) of the Netherlands Cancer Institute.
(§2) EAI045 was dissolved in dimethyl sulfoxide (DMSO) at a concentration of […], and then diluted with a mixture of polysorbate 80/ethanol (1:1, v/v), and further diluted with 5% (w/v) glucose in water to yield a concentration of 2 mg/mL. Final concentrations for DMSO, polysorbate 80, ethanol, and glucose in the dosing solution were 5%, 2.5%, 2.5%, and 4.5% (v/v/v/w), respectively. Elacridar hydrochloride was dissolved in DMSO at a concentration of 53 mg/mL, then diluted with a mixture of polysorbate 80, ethanol, and water [20:13:67, (v/v/v)] to yield a concentration of 5 mg/mL elacridar. The final oral dose of elacridar was 50 mg/kg body weight. All dosing solutions were prepared freshly on the day of experiment.
(§3) To minimize variation in absorption, mice were fasted for about 3 h before EAI045 was administered by gavage into the stomach (n = 5–6), using a blunt-ended needle. EAI045 was administered orally at dose of 20 mg/kg. Elacridar was administered orally at a dose of 50 mg/kg, 3 h prior to oral EAI045 administration. For the 24- or 4-h experiments, tail vein blood samplings were performed at 5 min, 30 min, 1, 2, 4, and 8 h, or 5 min, 15 min, 30 min, 1, and 2 h time points after oral administration of EAI045, respectively, using microvettes containing heparin. For the 30 min experiments, blood samplings were performed at 5, 10, and 20 min from the tail vein. At the last time point (24 h, 4 h, or 30 min), mice were anesthetized with isoflurane and blood was collected by cardiac puncture. Then, mice were sacrificed by cervical dislocation and brain, liver, spleen, kidneys, lung, small intestine with content (SIWC), and testis were rapidly removed and weighed. Tissues were homogenized on ice in appropriate volumes of 2% (w/v) BSA. Blood samples were centrifuged at 9000× g for 6 min at 4 °C immediately after collection. All samples were stored at −30 °C until analysis.

For data set [4] the following is noted: mouse, in vivo.
Description: as §1, §2, §3
This is another data set of the same source.

The subject of the next data set is human OATP1A2. Set-up: method as in PMID 31770475. Conditions: cited from earlier work.
The conditions of data set [5]: after oral administration; no reference given; cited from earlier work.

As for `C=CC(=O)Nc1cc(Nc2nccc(-c3cn(C)c4ccccc34)n2)c(OC)cc1N(C)CCN(C)C` [osimertinib], the “increase in brain penetration in Abcb1a/1b;Abcg2-/- compared to WT mice” value (“increase in brain penetration” for short) in data set [1] is 6.4 fold.
For the compound `CN(C)C/C=C/C(=O)Nc1cc2c(Nc3ccc(F)c(Cl)c3)ncnc2cc1O[C@H]1CCOC1` [afatinib], in data set [1], the “increase in brain penetration” value is recorded as 28 fold.
Consider EAI001 [reference compound], for which the “potency against individual L858R and T790M mutants” value in data set [2] was “modest potency”.
Take `O=C(O)C(c1cc(F)ccc1O)N1Cc2ccccc2C1=O` (stereo not shown) [PIA]: in data set [3], the “PIA SIWC%, fold decrease” value is given as 1.8 fold; the “PIA SIWC%-to-plasma ratio, fold decrease” value is on record as 2.7 fold; the “amount of PIA retrieved from SIWC, % of the EAI045 dose” value was ~ 0.3%. Also, in data set [3] (po), the “PIA oral AUC0–30min among the strains” value is on record as “no meaningful differences”. Also, in data set [3] (po, 20 mg/kg), the “PIA/EAI045 AUC0–30min ratio” value is recorded as 270-480% and the “PIA/EAI045 AUC ratio” value was “about 400%”. Also, the PIA brain-to-plasma ratio in data set [3] (po, 20 mg/kg, 0.5 h) turned out to be 0.014. Moreover, in data set [4], the “PIA brain-to-plasma ratio, fold increase” value is listed as 3.3 fold; the “PIA kidney-to-plasma ratio, fold increase” value worked out at 4.2 fold; the “PIA liver-to-plasma ratio, fold decrease” value is 1.5 fold.
On to `COc1cc2c(cc1OC)CN(CCc1ccc(NC(=O)c3cccc4c(=O)c5cccc(OC)c5[nH]c34)cc1)CC2` [elacridar], for which the “inhibition of human OATP1A2” value in the data set on human OATP1A2 is given as “reported to inhibit”. Also, the “time of peak plasma concentration” value in data set [5] was 3 to 4 h.
In the case of `COc1cc(N2CCC(N3CCN(C)CC3)CC2)ccc1Nc1ncc(Cl)c(Nc2ccccc2P(C)(C)=O)n1` [brigatinib], in data set [1], the “increase in brain penetration” value is listed as 38 fold.
